Values joined by “and” are separate entries in the source; they are usually repeats but may differ in a detail not shown here. Equal values may be shown once.
Legend:
[1] = target: human ICMT (Homo sapiens (Human), UniProt O60725); assay: ICMT biochemical assay (Methyltransferase-Glo)
Method: Recombinant human ICMT was prepared by infection of Sf9 cells with a recombinant baculovirus containing the entire open reading frame of the human ICMT cDNA.
Cells producing ICMT were harvested 66 hours post-infection. The cells are homogenized and resuspended in 5 mM NaHPO4 (pH 7.0), and a cocktail of protease inhibitors. The membrane was pelleted, after removal of nuclei and debris, at 100,000×g for 1 hour. Membranes were resuspended in 5 mM NaHPO4 (pH 7.0) with 5 mM EDTA at 10-12 mg/ml. The suspension was stored at −80° C. in multiple aliquots.
An ICMT enzymatic assay was developed using Promega's Methyltransferase-GloTMreagents. In the assay, ICMT catalyzes the methylation of the N-Acetyl-S-farnesyl-L-cysteine by transferring a methyl group from SAM to the farnesylated cysteine and further converts the SAM to SAH. The methyltransferase activity is measured based on the amount of SAH produced from the reaction through the use of coupling enzymes that convert the SAH to ATP. The MTase-Glo detection solution then catalyzes the formation of light from ATP.
A final concentration of 2.0 μM and 20 μM of SAM and peptide were added and further incubated for 90 minutes at room temperature before adding the MTase Glo and detection reagent. Reaction signals were detected using microplate readers on luminescent mode (Satire Tecan). The IC50 was determined by nonlinear regression, using GraphPad Prism version, 5.03.

[2] = tested on: MIAPaCa-2 cells; assay: Cell proliferation assay (CellTiter-Glo); type: cell-based; settings: Homo sapiens, MIA PaCa-2, 72 h, 3 days
Method: Cell proliferation assay was performed using CellTiter-Glo Luminescent Cell Viability Assay (Promega) following manufacturer's instructions. The MIAPaCa-2 cells (ATCC) were treated with compounds that were serial diluted in the media (DMEM). Plates were incubated for 3 days at 37° C. in 5% CO2. After 3 days, an equal volume of Cell Titer Glo reagent was added. Plates were rocked on a rotator for 2 hours. 100 μL of each well was transferred to a 96-well opaque plate, and luminescence emitted was measured with the Tecan Safire II.

[3] = tested on: Prelamin A in MIAPaCa-2 cells; assay: Prelamin A accumulation assay (Western blot); type: cell-based; settings: various concentrations, 48 hours
Method: The MIAPaCa-2 cells were seeded in 6-well plates. After seeding for 24 hours, the cells were treated with either DMSO or varying concentration of the compound and incubated for 48 hours. The cells were trypsinized and the lysate was extracted with RIPA buffer (Santa Cruz). The total protein concentration of lysate is quantified using the standard Bradford assay (Biorad protein assay, microplate standard assay).
Western blot analysis was performed using antibody against Prelamin A in MIAPaCa cells treated with compound at various concentration for 48 hours. 15.0 μg of cell lysate was run on a SDS-PAGE and then transferred to nitrocellulose membrane. The membrane was then incubated in blocking buffer [PBS (phosphate buffered saline) with 0.1% Tween 20 and 5% dry milk] at room temperature for 1 hour, followed by incubation with Prelamin A antibody (rat monoclonal antibody) at 1:2500 dilution in PBS, 0.1% Tween 20 and 5% dry milk overnight at 4° C., followed by three washes (15 minutes each wash) in PBS, 0.1% Tween 20 on the next day.
The nitrocellulose membrane was then incubated with secondary antibody solution at room temperature for 1 hour, washed three times before developed with enhanced Chemiluminescence (ECL) mixture (Amersham, Aylesbury, United Kingdom), incubated for 5 minutes and exposed using Fluor Chem E System instrument (Protein Simple).

[4] = ICMT membrane extract from Sf-9 cells, 30 min preincubation, 90 min reaction

human ICMT, sequence (O60725 whole entry): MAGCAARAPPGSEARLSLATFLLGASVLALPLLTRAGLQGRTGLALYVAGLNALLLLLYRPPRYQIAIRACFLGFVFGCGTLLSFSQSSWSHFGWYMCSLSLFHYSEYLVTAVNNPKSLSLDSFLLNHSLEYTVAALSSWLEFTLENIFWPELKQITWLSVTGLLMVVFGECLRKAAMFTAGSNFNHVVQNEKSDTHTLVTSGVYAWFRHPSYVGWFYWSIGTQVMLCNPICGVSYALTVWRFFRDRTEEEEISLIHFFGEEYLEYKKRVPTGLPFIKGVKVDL

| IC50 [1, 4] | SMILES | further results |
| --- | --- | --- |
| 440 pM | Cc1nccn1-c1cc(OCCOc2ccc(C#N)cc2F)ccn1 [Compound 53, 3-fluoro-4-(2-((2-(2-methyl-1H-imidazol-1-yl)pyridin-4-yl)oxy)ethoxy)benzonitrile] | GI50 [2]: 2.2 µM |
| 20000 pM | Cn1nccc1-c1cc(OCCOc2ccc(C#N)cc2)ccn1 [Compound 59, 4-(2-((2-(1-methyl-1H-pyrazol-5-yl)pyridin-4-yl)oxy)ethoxy)benzonitrile] | Prelamin A accumulation (Western blot) [3]: Prelamin A accumulation; GI50 [2]: 5.52 µM |
| 2800 pM and 1400 pM and 1500 pM | Cn1nccc1-c1cc(OCCOc2ccc(C#N)cc2F)ccn1 [Compound 69, 3-fluoro-4-(2-((2-(1-methyl-1H-pyrazol-5-yl)pyridin-4-yl)oxy)ethoxy)benzonitrile] | Prelamin A accumulation (Western blot) [3]: Prelamin A accumulation; GI50 [2]: 5.05 µM |
| 470000 to 1e+06 pM | Cn1nccc1-c1cc(OCCOc2ncc(C#N)cc2F)ccn1 [Compound 97, 5-fluoro-6-(2-((2-(1-methyl-1H-pyrazol-5-yl)pyridin-4-yl)oxy)ethoxy)nicotinonitrile] |  |
| 10000 pM | Cn1nccc1-c1cc(OCCOc2ccc(Cl)cc2C#N)ccn1 [Compound 98, 5-chloro-2-(2-((2-(1-methyl-1H-pyrazol-5-yl)pyridin-4-yl)oxy)ethoxy)benzonitrile] |  |
| 1800 pM | Cn1nccc1-c1cc(OCCOc2ccc(C#N)cc2Cl)ccn1 [Compound 100, 3-chloro-4-(2-((2-(1-methyl-1H-pyrazol-5-yl)pyridin-4-yl)oxy)ethoxy)benzonitrile] |  |
| 29000 pM | Cn1nccc1-c1cc(OCCOc2ccc(Cl)cc2F)ccn1 [Compound 101, 4-(2-(4-chloro-2-fluorophenoxy)ethoxy)-2-(1-methyl-1H-pyrazol-5-yl)pyridine] |  |
| 68000 pM | Cc1nccn1-c1cccc(OCCOc2ccc(Cl)cc2F)c1 [Compound 102, 1-(3-(2-(4-chloro-2-fluorophenoxy)ethoxy)phenyl)-2-methyl-1H-imidazole] |  |
| 3100 pM | Cc1nccn1-c1cc(OCCOc2ccc(Cl)cc2F)ccn1 [Compound 103, 4-(2-(4-chloro-2-fluorophenoxy)ethoxy)-2-(2-methyl-1H-imidazol-1-yl)pyridine] |  |
| 1700 pM | Cc1nccn1-c1cc(OCCOc2ccc(Br)cc2F)ccn1 [Compound 104, 4-(2-(4-bromo-2-fluorophenoxy)ethoxy)-2-(2-methyl-1H-imidazol-1-yl)pyridine] |  |
| 6000 pM | Cn1nccc1-c1cc(F)cc(OCCOc2ccc(C#N)cc2F)c1 [Compound 105, 3-fluoro-4-(2-(3-fluoro-5-(1-methyl-1H-pyrazol-5-yl)phenoxy)ethoxy)benzonitrile] |  |
| 300000 to 1e+06 pM | Cn1nccc1-c1cccc(OCCOc2ccc(C#N)cc2F)n1 [Compound 106, 3-fluoro-4-(2-((6-(1-methyl-1H-pyrazol-5-yl)pyridin-2-yl)oxy)ethoxy)benzonitrile] |  |
| 22000 pM | Cn1nccc1-c1cc(OCCOc2ccc(C#N)cc2F)ccc1F [Compound 113, 3-fluoro-4-(2-(4-fluoro-3-(1-methyl-1H-pyrazol-5-yl)phenoxy)ethoxy)benzonitrile] |  |
| 70000 pM | Cn1nccc1-c1cc(OCCOc2ccc(Br)cc2F)ccn1 [Compound 121, 4-(2-(4-bromo-2-fluorophenoxy)ethoxy)-2-(1-methyl-1H-pyrazol-5-yl)pyridine] |  |

Further lines, the molecule ahead of its results:

| SMILES | IC50 [1, 4] | further results |
| --- | --- | --- |
| Cc1nccn1-c1cc(OCCOc2ccc(C#N)cn2)ccn1 [Compound 70, 6-(2-((2-(2-methyl-1H-imidazol-1-yl)pyridin-4-yl)oxy)ethoxy)nicotinonitrile] | 27000 pM | Prelamin A accumulation (Western blot) [3]: Prelamin A accumulation; GI50 [2]: 5.99 µM |
| Cc1nccn1-c1cccc(OC[C@@H](C)Oc2ccc(C#N)cc2F)c1 [Compound 78, (R)-3-fluoro-4-((1-(3-(2-methyl-1H-imidazol-1-yl)phenoxy)propan-2-yl)oxy)benzonitrile] |  | IC50 ([1]; unit printed in cell (pM)): 75 pM; GI50 [2]: 6.02 µM |
| Cn1nccc1-c1cc(OCCOc2ccc(C#N)cc2)ccc1F [Compound 93, 4-(2-(4-fluoro-3-(1-methyl-1H-pyrazol-5-yl)phenoxy)ethoxy)benzonitrile] | 6600 pM |  |
| Cn1nccc1-c1cc(F)cc(OCCOc2ccc(C#N)cc2)c1 [Compound 94, 4-(2-(3-fluoro-5-(1-methyl-1H-pyrazol-5-yl)phenoxy)ethoxy)benzonitrile] | 1600 pM |  |
| Cc1nncn1-c1cc(OCCOc2ccc(C#N)cc2F)ccn1 [Compound 95, 3-fluoro-4-(2-((2-(3-methyl-4H-1,2,4-triazol-4-yl)pyridin-4-yl)oxy)ethoxy)benzonitrile] | 10000 pM |  |
| Cn1nccc1-c1ccc(F)c(OCCOc2ccc(C#N)cc2)c1 [Compound 96, 4-(2-(2-fluoro-5-(1-methyl-1H-pyrazol-5-yl)phenoxy)ethoxy)benzonitrile] | 400000 to 3e+06 pM |  |
| Cc1nccn1-c1cc(OCCOc2ccc(Cl)cc2C#N)ccn1 [Compound 99, 5-chloro-2-(2-((2-(2-methyl-1H-imidazol-1-yl)pyridin-4-yl)oxy)ethoxy)benzonitrile] | 2600 pM |  |
| Cn1nccc1-c1cc(OCCOc2ncc(C#N)cc2F)ccc1F [Compound 107, 5-fluoro-6-(2-(4-fluoro-3-(1-methyl-1H-pyrazol-5-yl)phenoxy)ethoxy)nicotinonitrile] | 150000 pM |  |
| Cc1nccn1-c1cc(OCCOc2ccc(C#N)cc2)ccc1F [Compound 108, 4-(2-(4-fluoro-3-(2-methyl-1H-imidazol-1-yl)phenoxy)ethoxy)benzonitrile] | 51000 pM |  |
| Cc1nccn1-c1cc(OCCOc2ccc(C#N)cn2)ccc1F [Compound 109, 6-(2-(4-fluoro-3-(2-methyl-1H-imidazol-1-yl)phenoxy)ethoxy)nicotinonitrile] | 170000 pM |  |
| Cn1nccc1-c1cccc(OCCOc2ccc(Cl)cc2)c1 [Compound 110, 5-(3-(2-(4-chlorophenoxy)ethoxy)phenyl)-1-methyl-1H-pyrazole] | 270000 pM |  |
| Cc1nccn1-c1cccc(OCCOc2ccc(C#N)cc2C(F)(F)F)c1 [Compound 111, 4-(2-(3-(2-methyl-1H-imidazol-1-yl)phenoxy)ethoxy)-3-(trifluoromethyl)benzonitrile] | 180000 pM |  |
| Cc1nccn1-c1cccc(OCCOc2ccc(Cl)cc2)c1 [Compound 112, 1-(3-(2-(4-chlorophenoxy)ethoxy)phenyl)-2-methyl-1H-imidazole] | 250000 pM |  |
| Cc1nccn1-c1cccc(OCCOc2ccc(F)cc2C#N)c1 [Compound 114, 5-fluoro-2-(2-(3-(2-methyl-1H-imidazol-1-yl)phenoxy)ethoxy)benzonitrile] | 82000 pM |  |
| Cc1nccn1-c1cc(OCCOc2ccc(Cl)cc2)ccn1 [Compound 115, 4-(2-(4-chlorophenoxy)ethoxy)-2-(2-methyl-1H-imidazol-1-yl)pyridine] | 160000 pM |  |
| N#Cc1ccc(OCCOc2cccc(-c3ccnn3C3CC3)c2)c(F)c1 [Compound 116, 4-(2-(3-(1-cyclopropyl-1H-pyrazol-5-yl)phenoxy)ethoxy)-3-fluorobenzonitrile] | 9500 pM |  |
| N#Cc1ccc(OCCOc2cccc(-c3ccnn3C3CC3)c2)cc1 [Compound 117, 4-(2-(3-(1-cyclopropyl-1H-pyrazol-5-yl)phenoxy)ethoxy)benzonitrile] | 55000 pM |  |
| N#Cc1ccc(OCCOc2cccc(-c3ccnn3C3CC3)c2)c(Cl)c1 [Compound 118, 3-chloro-4-(2-(3-(1-cyclopropyl-1H-pyrazol-5-yl)phenoxy)ethoxy)benzonitrile] | 2200 pM |  |
| Cc1nccn1-c1cc(OCCOc2ccc(F)cc2C#N)ccn1 [Compound 119, 5-fluoro-2-(2-((2-(2-methyl-1H-imidazol-1-yl)pyridin-4-yl)oxy)ethoxy)benzonitrile] | 80000 pM |  |
| N#Cc1ccc(OCCOc2ccnc(-n3cnnn3)c2)c(F)c1 [Compound 120, 4-(2-((2-(1H-tetrazol-1-yl)pyridin-4-yl)oxy)ethoxy)-3-fluorobenzonitrile] | 12000 pM |  |
